Read-outs that look alike come from different tables or passages of the source.
Tested on: S. aureus Smith (ATCC 13709)
Experiment: Mouse systemic infection (septicemia) model, S. aureus Smith
Assay type: in vivo
Conditions: Staphylococcus aureus, CD-1 female mice; for responders at 3 mg/kg: IV 3 mg/kg one hour post infection, read-out: SA Smith septicemia survival IV (3 mg/kg); for responders at 3 mg/kg / responders at 30 mg/kg: survival at 48 hours; for responders at 30 mg/kg: PO 30 mg/kg one hour post infection, read-out: SA Smith septicemia survival PO (30 mg/kg); for ED50: dose that prevents 50% of the mice from death, 48 hours
Procedure: Mouse Systemic Infection Protocol-S. aureus Smith Septicemia
Compounds were screened for antibacterial activity in vivo in a mouse systemic infection (septicemia) model. In the model, CD-1 female mice (18-22 grams) were injected IP with a S. aureus Smith (ATCC 13709) inoculum that results in 0% survival within 24 to 48 hours. The bacterial dose required to achieve this effect was previously established through virulence studies. At one hour post infection, mice received either […] IV or […] PO. Typically, six mice were treated per dose group. Animal survival was assessed and recorded for 48 hours. Percent survival at 48 hours was recorded and PD50 (mg/kg) was determined for each compound tested.

[1] = ATCC13709, PO, read-out: SA Smith septicemia PD50 PO

Structure (SMILES)	responders at 3 mg/kg (ATCC13709) [%]	responders at 30 mg/kg (ATCC13709) [%]	responders at 3 mg/kg (ATCC13709, iv, 48 h) [%]	responders at 30 mg/kg (ATCC13709, po, 48 h) [%]	ED50 [1] [mg/kg]	ED50 (ATCC13709, IV, read-out: SA Smith septicemia PD50 IV) [mg/kg]
CN(C)[C@@H]1C(O)=C(C(N)=O)C(=O)[C@@]2(O)C(O)=C3C(=O)c4c(O)cc(CN5C6CCC5CC6)c(Cl)c4C[C@H]3C[C@@H]12 [Compound S15-13-222]	100	100	–	–	–	–
C[C@H]1CCC[C@H](C)N1Cc1cc(O)c2c(c1Cl)C[C@H]1C[C@H]3[C@H](N(C)C)C(O)=C(C(N)=O)C(=O)[C@@]3(O)C(O)=C1C2=O [Compound S15-13-225]	–	–	100	100	–	–
CN(C)[C@@H]1C(O)=C(C(N)=O)C(=O)[C@@]2(O)C(O)=C3C(=O)c4c(O)cc(CN5CC[C@H](F)C5)c(Cl)c4C[C@H]3C[C@@H]12 [Compound S15-13-226]	–	–	100	83	–	–
CN(C)C(=O)C(C)(C)N(C)Cc1cc(O)c2c(c1Cl)C[C@H]1C[C@H]3[C@H](N(C)C)C(O)=C(C(N)=O)C(=O)[C@@]3(O)C(O)=C1C2=O [Compound S15-13-227]	–	–	17	0	–	–
CN(C)c1c(CN2CCCC2(C)C)cc(O)c2c1C[C@H]1C[C@H]3[C@H](N(C)C)C(O)=C(C(N)=O)C(=O)[C@@]3(O)C(O)=C1C2=O [Compound S16-10-11]	–	–	100	100	10	–
CN(C)c1c(CNC2C3CC4CC(C3)CC2C4)cc(O)c2c1C[C@H]1C[C@H]3[C@H](N(C)C)C(O)=C(C(N)=O)C(=O)[C@@]3(O)C(O)=C1C2=O (stereo partly drawn) [Compound S16-10-18]	–	–	17	0	–	–
CN(C)c1c(CN(C)C2(C)CCC2)cc(O)c2c1C[C@H]1C[C@H]3[C@H](N(C)C)C(O)=C(C(N)=O)C(=O)[C@@]3(O)C(O)=C1C2=O [Compound S16-10-107]	–	–	100	100	–	–
CN(C)c1c(CN2CCCCCC2)cc(O)c2c1C[C@H]1C[C@H]3[C@H](N(C)C)C(O)=C(C(N)=O)C(=O)[C@@]3(O)C(O)=C1C2=O [Compound S16-10-177]	–	–	100	100	–	–
CN(C)[C@@H]1C(O)=C(C(N)=O)C(=O)[C@@]2(O)C(O)=C3C(=O)c4c(cc(F)c(CNCC(C)(C)C)c4O)C[C@H]3C[C@@H]12 [Compound S19-8-1]	–	–	100	100	12.2	0.36
CN(C)[C@@H]1C(O)=C(C(N)=O)C(=O)[C@@]2(O)C(O)=C3C(=O)c4c(O)cc(NC(=O)CN5CCCC5)cc4C[C@H]3C[C@@H]12 [Compound S21-12-1]	–	–	100	33	–	–
COc1c(CN2CCCC2(C)C)cc(O)c2c1C[C@H]1C[C@H]3[C@H](N(C)C)C(O)=C(C(N)=O)C(=O)[C@@]3(O)C(O)=C1C2=O [Compound S24-9-10]	–	–	100	100	–	–
CCC(C)(C)N(C)Cc1cc(O)c2c(c1OC)C[C@H]1C[C@H]3[C@H](N(C)C)C(O)=C(C(N)=O)C(=O)[C@@]3(O)C(O)=C1C2=O [Compound S24-9-19]	–	–	100	100	–	–
CN(C)[C@@H]1C(O)=C(C(N)=O)C(=O)[C@@]2(O)C(O)=C3C(=O)c4c(O)cc(CN[C@H]5CC6CCC5C6)c(C(F)(F)F)c4C[C@H]3C[C@@H]12 (stereo partly drawn) [Compound S25-11-12]	–	–	0	20	–	–
C[C@H]1CCCN1Cc1cc(O)c2c(c1C(F)(F)F)C[C@H]1C[C@H]3[C@H](N(C)C)C(O)=C(C(N)=O)C(=O)[C@@]3(O)C(O)=C1C2=O [Compound S25-11-48]	–	–	100	100	–	–
CN(C)[C@@H]1C(O)=C(C(N)=O)C(=O)[C@@]2(O)C(O)=C3C(=O)c4c(O)cc(CN5CCCCCC5)c(C(F)(F)F)c4C[C@H]3C[C@@H]12 [Compound S25-11-56]	–	–	67	33	–	–

From patent US9315451B2, “Tetracycline compounds” (priority 2009, dated 2016)
